In PMC5126721 (ACS Central Science, 2016):

Target: lysozyme (Gallus gallus, UniProt P00698)
Assay: TIMES
Format: binding

Sequence of lysozyme (P00698 19-147): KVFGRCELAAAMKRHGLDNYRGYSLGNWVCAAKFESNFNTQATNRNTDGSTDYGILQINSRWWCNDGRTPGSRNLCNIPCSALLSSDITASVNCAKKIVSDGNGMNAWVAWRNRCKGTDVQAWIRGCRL

SMILES: CC(=O)N[C@H]1[C@H](O[C@H]2[C@H](O)[C@@H](NC(C)=O)C(O)O[C@@H]2CO)O[C@H](CO)[C@@H](O[C@@H]2O[C@H](CO)[C@@H](O)[C@H](O)[C@H]2NC(C)=O)[C@@H]1O (stereo partly shown) [NAG3, N,N′,N″-triacetylchitotriose]
- Kd: 39.8 µM
